Reference: patent publication US8921372B2, “Inhibitors of hepatitis C virus” (Theravance Biopharma R&D IP, LLC, priority 2010, dated 2014)
Where two headings read alike, the source gives them in different places.

Key:
[1] = test system: HCV genotype 1b replicon cell line (APC144; Huh7 cell background); experiment: HCV Genotype 1b Replicon Assay (Renilla luciferase readout); assay type: cell-based; settings: Hepatitis C virus, Huh-7; read-out: Genotype 1b (pEC50 class, HCV genotype 1b replicon assay) (converted)
Procedure, shortened: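 Reported as pEC50 derived from a 4-parameter fit of Renilla luciferase activity against concentration. Replicon cells (APC144, Huh7 background) were exposed to compound for 48 h in G418-free medium with final 0.5% DMSO, after seeding at 10,000 cells/well and 4 h adherence.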

[2] = test system: HCV genotype 1a replicon cell line (APC89; Huh7.5 cell background); experiment: HCV Genotype 1a Replicon Assay (NS3-specific protease activity readout); assay type: cell-based; settings: Hepatitis C virus
Procedure, shortened: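 EC50 values came from a 4-parameter robust fit of fluorescence (ex 340, em 509 nm) produced by NS3-specific protease in lysates, assayed with 15 μM FRET substrate for 20 min at 37° C, after 48 or 72 hours of compound exposure (0.5% DMSO) of Huh7.5-derived APC89 genotype 1a replicon cells.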

[3] = 72 hour incubation, read-out: Genotype 1a (pEC50 class, HCV genotype 1a replicon assay) (converted)

SMILES | EC50 [1] [nM] | EC50 [2, 3] [nM] | EC50 ([2]; compounds incubated for 48 hours, read-out: Genotype 1a (pEC50 class, HCV genotype 1a replicon assay), * results (converted)) [nM]
COC(=O)N[C@H](C(=O)N1CCC[C@H]1c1nc(-c2ccc(-c3ccc(NC(=O)c4ccc(N5CCN(C(=O)[C@H]6CC6(C)C)C[C@H]5C)nc4)cc3Cl)cc2)c[nH]1)C(C)C [Example 49, [(S)-1-((S)-2-{4-[2′-Chloro-4′-({6-[(R)-4-((S)-2,2-dimethyl-cyclopropanecarbonyl)-2-methyl-piperazin-1-yl]-pyridine-3-carbonyl}-amino)-biphenyl-4-yl]-1H-imidazol-2-yl}-pyrrolidine-1-carbonyl)-2-methyl-propyl]-carbamic acid methyl ester] | < 0.1 | < 0.1 | –
CNC(=O)N1CCN(c2ccc(C(=O)Nc3ccc(-c4ccc(-c5c[nH]c([C@@H]6CCCN6C(=O)[C@@H](NC(=O)OC)C(C)C)n5)cc4)c(OC(F)(F)F)c3)cn2)[C@H](C)C1 [Example 26] | < 0.1 | < 0.1 | –
COC(=O)N[C@H](C(=O)N1CCC[C@H]1c1nc(-c2ccc(-c3ccc(NC(=O)c4ccc(N5CCN(C(=O)C6CC6)CC5)nc4)cc3)cc2)c[nH]1)C(C)C [Example 5, ((S)-1-{(S)-2-[4-(4′-{[6-(4-Cyclopropanecarbonyl-piperazin-1-yl)-pyridine-3-carbonyl]-amino}-biphenyl-4-yl)-1H-imidazol-2-yl]-pyrrolidine-1-carbonyl}-2-methyl-propyl)-carbamic acid methyl ester] | < 0.1 | 1 to 10 | –
COC(=O)N[C@H](C(=O)N1CCC[C@H]1c1nc(-c2ccc(-c3cc(F)c(NC(=O)c4ccc(N5CCN(C(=O)[C@]6(C)CCCN6C(=O)OC)C[C@H]5C)nc4)cc3OC(F)(F)F)cc2)c[nH]1)C(C)C [Example 27-42] | < 0.1 | < 0.1 | –
COC(=O)N[C@H](C(=O)N1CCC[C@H]1c1nc(-c2ccc(-c3cc(F)c(NC(=O)c4ccc(N5CCN(C(=O)[C@]6(C)CCCN6C(=O)[C@@H](N)C(C)C)C[C@H]5C)nc4)cc3OC(F)(F)F)cc2)c[nH]1)C(C)C [Example 27-44] | < 0.1 | < 0.1 | –
COC(=O)N[C@H](C(=O)N1CCC[C@H]1c1nc(-c2ccc(-c3cc(F)c(NC(=O)c4ccc(N5C[C@H](C)N(C(=O)c6c[nH]cn6)C[C@H]5C)nc4)cc3OC(F)(F)F)cc2)c[nH]1)C(C)C [Example 59] | < 0.1 | < 0.1 | –
COC(=O)N[C@H](C(=O)N1CCC[C@H]1c1nc(-c2ccc(-c3ccc(NC(=O)c4ccc(N5CCN(C(=O)C6CC6)C[C@H]5C)nc4)cc3)cc2)c[nH]1)C(C)C [Example 12, ((S)-1-{(S)-2-[4-(4′-{[6-((R)-4-Cyclopropanecarbonyl-2-methyl-piperazin-1-yl)-pyridine-3-carbonyl]-amino}-biphenyl-4-yl)-1H-imidazol-2-yl]-pyrrolidine-1-carbonyl}-2-methyl-propyl)-carbamic acid methyl ester] | < 0.1 | 0.1 to 1 | –
COC(=O)N[C@H](C(=O)N1CCC[C@H]1c1nc(-c2ccc(-c3ccc(NC(=O)c4ccc(N5CCN(C(=O)[C@H]6CC6(C)C)C[C@H]5C)nc4)cc3)cc2)c[nH]1)C(C)C [Example 14, [(S)-1-((S)-2-{4-[4′-({6-[(R)-4-((S)-2,2-Dimethyl-cyclopropane-carbonyl)-2-methyl-piperazin-1-yl]-pyridine-3-carbonyl}-amino)-biphenyl-4-yl]-1H-imidazol-2-yl}-pyrrolidine-1-carbonyl)-2-methyl-propyl]-carbamic acid methyl ester] | < 0.1 | < 0.1 | –
COC(=O)N[C@H](C(=O)N1CCC[C@H]1c1nc(-c2ccc(-c3ccc(NC(=O)c4ccc(N5CCN(C(=O)c6c[nH]cn6)C[C@H]5C)nc4)cc3C)cc2)c[nH]1)C(C)C [Example 19] | < 0.1 | 0.1 to 1 | –
COC(=O)N[C@H](C(=O)N1CCC[C@H]1c1nc(-c2ccc(-c3cc(F)c(NC(=O)c4ccc(N5CCN(C(=O)[C@H]6CC6(C)C)C[C@H]5C)nc4)cc3C(F)(F)F)cc2)c[nH]1)C(C)C [Example 51, [(S)-1-((S)-2-{4-[4′-({6-[(R)-4-((S)-2,2-Dimethyl-cyclopropanecarbonyl)-2-methyl-piperazin-1-yl]-pyridine-3-carbonyl}-amino)-5′-fluoro-2′-trifluoromethyl-biphenyl-4-yl]-1H-imidazol-2-yl}-pyrrolidine-1-carbonyl)-2-methyl-propyl]carbamic acid methyl ester] | < 0.1 | < 0.1 | –
CNC(=O)N1CCN(c2ccc(C(=O)Nc3cc(OC(F)(F)F)c(-c4ccc(-c5c[nH]c([C@@H]6CCCN6C(=O)[C@@H](NC(=O)OC)C(C)C)n5)cc4)cc3Cl)cn2)[C@H](C)C1 [Example 27-68] | < 0.1 | < 0.1 | –
COCC(=O)N1CCC[C@@]1(C)C(=O)N1CCN(c2ccc(C(=O)Nc3cc(OC(F)(F)F)c(-c4ccc(-c5c[nH]c([C@@H]6CCCN6C(=O)[C@@H](NC(=O)OC)C(C)C)n5)cc4)cc3OC)cn2)[C@H](C)C1 [Example 27-31] | < 0.1 | < 0.1 | –
COC(=O)N[C@H](C(=O)N1CCC[C@H]1c1nc(-c2ccc(-c3ccc(NC(=O)c4ccc(N5CCN(S(C)(=O)=O)CC5)cc4)cc3)cc2)c[nH]1)C(C)C [Example 4, {(S)-1-[(S)-2-(4-{4′-[4-(4-Methanesulfonyl-piperazin-1-yl)-benzoylamino]-biphenyl-4-yl}-1H-imidazol-2-yl)-pyrrolidine-1-carbonyl]-2-methyl-propyl}-carbamic acid methyl ester] | < 0.1 | – | 10 to 100
CNC(=O)N1CCN(c2ccc(C(=O)Nc3ccc(-c4ccc(-c5c[nH]c([C@@H]6CCCN6C(=O)[C@@H](NC(=O)OC)C(C)C)n5)cc4)c(C)c3)cn2)[C@H](C)C1 [Example 18] | < 0.1 | 0.1 to 1 | –
COC(=O)N[C@H](C(=O)N1CCC[C@H]1c1nc(-c2ccc(-c3cc(F)c(NC(=O)c4ccc(N5CCN(C(=O)[C@]6(C)CCCN6C(=O)CO)C[C@H]5C)nc4)cc3OC(F)(F)F)cc2)c[nH]1)C(C)C [Example 27-48] | < 0.1 | < 0.1 | –
COC(=O)N[C@H](C(=O)N1CCC[C@H]1c1nc(-c2ccc(-c3ccc(NC(=O)c4ccc(N5CCN(C(=O)c6c[nH]cn6)C[C@H]5C)nc4)cc3OC(F)(F)F)cc2)c[nH]1)C(C)C [Example 27] | < 0.1 | < 0.1 | –
COC(=O)N[C@H](C(=O)N1CCC[C@H]1c1nc(-c2ccc(-c3ccc(C(=O)Nc4ccc(N5CCN(C(=O)[C@]6(C)CCCN6C(=O)C(C)(C)O)C[C@H]5C)nc4)cc3OC(F)(F)F)cc2)c[nH]1)C(C)C [Example 69] | < 0.1 | 0.1 to 1 | –
COC(=O)N[C@H](C(=O)N1CCC[C@H]1c1nc(-c2ccc(-c3ccc(NC(=O)c4ccc(N5CCN(C(=O)c6c[nH]cn6)C[C@H]5C)nc4)cc3C(F)(F)F)cc2)c[nH]1)C(C)C [Example 37] | < 0.1 | 0.1 to 1 | –
COC(=O)N[C@H](C(=O)N1CCC[C@H]1c1nc(-c2ccc(-c3ccc(NC(=O)c4ccc(N5CCN(C(=O)C6CC6)C[C@H]5C)nc4)cc3C)cc2)c[nH]1)C(C)C [Example 17] | < 0.1 | 0.1 to 1 | –
COC(=O)N[C@H](C(=O)N1CCC[C@H]1c1nc(-c2ccc(-c3cc(F)c(NC(=O)c4ccc(N5CCN(C(=O)CNC(C)=O)C[C@H]5C)nc4)cc3OC(F)(F)F)cc2)c[nH]1)C(C)C [Example 27-37] | < 0.1 | < 0.1 | –
CCOc1cc(NC(=O)c2ccc(N3CCN(C(=O)[C@]4(C)CCCN4C(=O)[C@@H](NC(=O)OC)C(C)C)C[C@H]3C)nc2)ccc1-c1ccc(-c2c[nH]c([C@@H]3CCCN3C(=O)[C@@H](NC(=O)OC)C(C)C)n2)cc1 [Example 21, [(S)-1-((S)-2-{4-[2′-Ethoxy-4′-({6-[(R)-4-((S)-1-{(S)-2-methoxycarbonylamino-3-methyl-butyryl}-2-methyl-pyrrolidine-2-carbonyl)-2-methyl-piperazin-1-yl]-pyridine-3-carbonyl}-amino)-biphenyl-4-yl]-1H-imidazol-2-yl}-pyrrolidine-1-carbonyl)-2-methyl-propyl]-carbamic acid methyl ester] | < 0.1 | < 0.1 | –
CNC(=O)N1CCN(c2ccc(C(=O)Nc3ccc(-c4ccc(-c5c[nH]c([C@@H]6CCCN6C(=O)[C@@H](NC(=O)OC)C(C)C)n5)cc4)c(F)c3)cn2)[C@H](C)C1 [Example 47] | < 0.1 | 0.1 to 1 | –
COC(=O)N[C@H](C(=O)N1CCC[C@H]1c1nc(-c2ccc(-c3cc(F)c(NC(=O)c4ccc(N5CCN(C(=O)c6c[nH]cn6)C[C@H]5C)nc4)cc3OC(F)(F)F)cc2)c[nH]1)C(C)C [Example 27-33] | < 0.1 | < 0.1 | –
COC(=O)N[C@H](C(=O)N1CCC[C@H]1c1nc(-c2ccc(-c3cc(F)c(NC(=O)c4ccc(N5CCN(C(=O)[C@]6(C)CCCN6C(=O)[C@@H](NC(=O)OC)C(C)C)C[C@H]5C)nc4)cc3C(F)(F)F)cc2)c[nH]1)C(C)C [Example 52] | < 0.1 | < 0.1 | –
COC(=O)N[C@H](C(=O)N1CCC[C@H]1c1nc(-c2ccc(-c3ccc(C(=O)Nc4ccc(N5CCN(C(=O)[C@]6(C)CCCN6C(=O)CO)C[C@H]5C)nc4)cc3OC(F)(F)F)cc2)c[nH]1)C(C)C [Example 68] | < 0.1 | 0.1 to 1 | –
COC(=O)N[C@H](C(=O)N1CCC[C@H]1c1nc(-c2ccc(-c3ccc(NC(=O)c4ccc(N5C[C@H](C)N(C(=O)[C@]6(C)CCCN6C(=O)[C@@H](NC(=O)OC)C(C)C)C[C@H]5C)nc4)cc3C)c(C)c2)c[nH]1)C(C)C [Example 40] | < 0.1 | 0.1 to 1 | –
